Read-outs that look alike come from different tables or passages of the source. Non-standard residues stand in square brackets, D forms with d. Residues, ends and D or L forms follow the SMILES beside them. *: point of attachment. X1 = COc1cc(C(C)OC(=O)N2CO[C@@H]3[C@H](C)OC(OC4CC(O)(C(=O)CO)Cc5c(O)c6c(c(O)c54)C(=O)c4c(OC)cccc4C6=O)C[C@@H]32)c([N+](=O)[O-])cc1OCC(=O)NCCOCCOCCOCCn1nnc2c1-c1ccccc1CN(C(=O)CCNC(=O)CCN1C(=O)CC(*)C1=O)c1ccccc1-2; Mpa = O=C(O)CCS
Legend:
[1] = system: MDA-MB-231 human breast cancer cells; assay: cells; format: cell-based
Method: The breast carcinoma line MDA-MB-231 was cultured in Minimum Essential Media (MEM) supplemented with 10% of fetal bovine serum (FBS), 100 units/mL of penicillin and 100 μg/mL of streptomycin, and 1 mM of sodium pyruvate. The cells were incubated at 37° C. in an atmosphere of 95% air and 5% CO2.
The cells were seeded to 96-well plates at a density of 1000 cells/well and allowed to adhere overnight. The prodrugs with various concentrations in MEM were added and the cells were incubated at 37° C. for 24 h. After the media was removed, the cells were washed with PBS two times. The cells in PBS (50 μL) were irradiated for 15 min, followed by incubating at room temperature for 30 min. The PBS was replaced with fresh media and the cells were grown until the no-drug control reached 80% confluency, or 5 days. Cell density was measured by crystal violet staining.
The membrane permeability of the photoactivated prodrugs and their cellular uptake by MDA-MB-231 human breast cancer cells were each monitored by fluorescence microscopy. After the cells were grown with the prodrugs for 24 h, they were washed with PBS two times to remove the prodrugs that remained outside of the cells. The cellular uptake of 10 μM glucose-photodoxazolidine and glucose-PEG-photodoxazolidine was monitored with the fluorescence of the anthraquinone fluorophore. The prodrugs were then activated inside of the cells by black lamp UV irradiation (maximum intensity at 350 nm) for 15 min. […] This drastic change of cytotoxicity presumably arises from membrane permeability of MARCKS-ED peptide and possibly some phototoxicity from longer irradiation time.

[2] = Photolysis timecourses, near UV blacklight 350 nm, HPLC; format: physicochemical; settings: for k in ACN: H2O, relative rate constant for photocleavage / k in PBS, relative rate constant for photocleavage: 100 μM, near UV 350 nm; for k in ACN: H2O, relative rate constant for photocleavage / k in ACN: H2O, fold over photodoxazolidine: 1:1 acetonitrile:water; for photochemical reaction, fold faster than photodoxazolidine: both solvents
Text: (§1) In order to investigate the photolysis of the drugs in a system amenable to cell culture use, a custom UV irradiation apparatus was constructed, consisting of 3 small blacklight fluorescent bulbs (Southern New England Ultraviolet Co., λmax=350 nm) set between two ring stands and suspended at a height of 11.5 cm. The bulbs' housing was reflective aluminum so as to direct as much UV irradiation as possible downward toward the plate. Upon installation in sterile cell culture hood, the power of the system was measured at approximately 6-7 mW using a Scientech laser power meter. Prior to experimentation, the hood and irradiation apparatus was sterilized with 254 nm germicidal UV irradiation overnight. Using this setup, 100 μM of 4,5-dimethoxy-2-nitrobenyl alcohol (DMNA), photodoxazolidine R═H, and glucose-PEG-photodoxazoldine were irradiated in individual wells of a 24-well plate. Initially, 50 μL of a DMSO stock was diluted with 950 μL of PBS and aliquots of 50 μL were removed at various times (0-180 min), mixing by pipetting each time. The timepoints were analyzed by HPLC (method 2) and plotted as fractional conversion versus time. […] Therefore, a second experiment was performed in which the PBS was replaced with 1:1 acetonitrile:water. With this system of 5% DMSO/47.5% acetonitrile/47.5% water, no visible precipitation was produced over the course of the reaction.
The measured quantum yield of 0.002 for photodoxazolidine R═H (above) was lower than expected, which raised the possibility that the presence of the anthraquinone ring complex in the prodrugs was inhibiting photocleavage by quenching the activated state. To test whether this, the irradiation kinetics of DMNA (4, 5-dimethoxy-2-nitrobenzyl alcohol) was compared against photodoxazolidine R═H, which contains the DMNA unit as the photoactivating group. Additionally, glucose-PEG-photodoxazoldine was included for comparison; a synthetic precursor to this compound, azido-PEG-photodoxazolidine, is suspected of having a quantum yield of 0.01-0.02, which is 5-10-fold larger than photodoxazolidine. Irradiation was performed in 24-well cell culture dishes using the cell culture irradiation system described above with the soft-glass high-pass filter. […] In both cases, photodoxazolidine was the slowest to produce dox from the irradiation. In line with its quantum yield, glucose-PEG-photodoxazolidine reacted 4-5-fold faster than photodoxazolidine. However, DMNA was by far the fastest to undergo photochemistry in this system, converting to product approximately 30-fold faster than photodoxazolidine.

[3] = system: MDA-MB-231 breast cancer cells; assay: Tumor cell growth inhibition, crystal violet (Example 2); format: cell-based, human; settings: Homo sapiens, read-out: IC50
Text: as §1
The ovarian carcinoma line NCl/ADR-RES (ADR) was grown in high-glucose Dulbecco's Modified Eagle Medium (DMEM) supplemented with 10% fetal bovine serum (FBS), 200 units/mL of penicillin and 200 μg/mL of streptomycin. The breast carcinoma line MDA-MB-231 was cultured in low-glucose DMEM with the same additives. Both lines were maintained in a humidified incubator with 5% CO2/95% air at 37° C. UV irradiations were performed with the apparatus described above.
Growth inhibition experiments were performed by seeding cells into 96-well plates or 24-well plates at densities of 1000-1500 cells per well or 8000 cells per well, respectively, and allowing the cells to adhere overnight. The media was then replaced with a range of aqueous concentrations of the drug in question and allowed to incubate at 37° C. with the cells for a span of time (Inc1) which ranged from 1 min to 48 hours. Irradiation was performed at room temperature with the plate's lid removed and ranged from 1 to 30 min. In some experiments, the drug solution was removed following Inc1 and irradiated in clean media or PBS. Following irradiation, the cells were placed back into the 37° C. incubator for a second period of incubation (Inc2), which varied between 1 min and 24 h, prior to replacement with fresh media. Plates which received no irradiation but identical treatment otherwise were done in parallel. The cells were then grown until the no-drug control wells reached approximately 80% confluence or 5 days, whichever was shorter. […] The cells were fixed with 5% formalin in PBS, stained with crystal violet, washed with tap water, and air-dried. The stain was resolubilized in 50% isopropyl alcohol, 50% H2O containing 2% (w/v) SDS. The staining density was read on a multiwell plate reader at 588-600 nm. Percentage cell density was calculated relative to the irradiated no-drug control wells, plotted as a function of drug concentration, and fit using non-linear least squared analysis with a variable-slope dose response model in GraphPad Prism 5.0 software.
Although the introduction of a long-pass glass filter between the light source and the plate alleviated this effect to a small extent, a maximum irradiation time of 10 min was settled upon. […] Since a media change at that point would remove the cells as well, the re-adherence of the cell population was accomplished by the addition of a large volume (200 μL) of complete media following Inc2, and overnight incubation. Then, a full media change was done to remove the drug. […]

COc1cc(C(C)OC(=O)N2CO[C@@H]3[C@H](C)OC(OC4CC(O)(C(=O)CO)Cc5c(O)c6c(c(O)c54)C(=O)c4c(OC)cccc4C6=O)C[C@@H]32)c([N+](=O)[O-])cc1OCC(=O)NCCOCCOCCOCCn1nnc2c1-c1ccccc1CN(C(=O)CCNC(=O)CCN1C(=O)CC(SCCC(=O)N[C@@H](CCCCN)C(=O)N[C@@H](CCCCN)C(=O)N[C@@H](CCCCN)C(=O)N[C@@H](CCCCN)C(=O)N[C@@H](CCCCN)C(=O)N[C@@H](CCCNC(=N)N)C(=O)N[C@@H](Cc3ccccc3)C(=O)N[C@@H](CO)C(=O)N[C@@H](Cc3ccccc3)C(=O)N[C@@H](CCCCN)C(=O)N[C@@H](CCCCN)C(=O)N[C@@H](CO)C(=O)N[C@@H](Cc3ccccc3)C(=O)N[C@@H](CCCCN)C(=O)N[C@@H](CC(C)C)C(=O)N[C@@H](CO)C(=O)NCC(=O)N[C@@H](Cc3ccccc3)C(=O)N[C@@H](CO)C(=O)N[C@@H](Cc3ccccc3)C(=O)N[C@@H](CCCCN)C(=O)N[C@@H](CCCCN)C(=O)N[C@@H](CC(N)=O)C(=O)N[C@@H](CCCCN)C(=O)N[C@@H](CCCCN)C(N)=O)C1=O)c1ccccc1-2 (some centres unmarked) [MARCKS-PEG-Photodoxazolidine] ([Mpa](X1)KKKKKRFSFKKSFKLSGFSFKKNKK-NH2)
IC50 ([1]; light −, 24 h incubation, read-out: IC50): 1300 nM

COc1cc(C(C)OC(=O)N2COC3C(C)OC(OC4CC(O)(C(=O)CO)Cc5c(O)c6c(c(O)c54)C(=O)c4c(OC)cccc4C6=O)CC32)c([N+](=O)[O-])cc1OCC(=O)NC1C(O)OC(CO)C(O)C1O (centres unmarked) [Glucose-Phtodoxazolidine]
IC50 ([1]; Homo sapiens, MDA-MB-231): 832 nM
IC50 ([1]; Homo sapiens, MDA-MB-231, 24 h): 2080 nM

COc1cc(CO)c([N+](=O)[O-])cc1OC [DMNA, 4,5-dimethoxy-2-nitrobenzylalcohol, reference compound]
k in ACN: H2O, relative rate constant for photocleavage [2]: 0.21 min⁻¹
k in PBS, relative rate constant for photocleavage [2]: 0.081 min⁻¹
k in ACN: H2O, fold over photodoxazolidine [2]: (30)
k in PBS, fold over photodoxazolidine [2]: (31)
photochemical reaction, fold faster than photodoxazolidine [2]: approximately 30 fold

COc1cc(C(C)OC(=O)N2COC3C(C)OC(OC4CC(O)(C(=O)CO)Cc5c(O)c6c(c(O)c54)C(=O)c4c(OC)cccc4C6=O)CC32)c([N+](=O)[O-])cc1OCC(=O)NCCOCCOCCOCCn1cc(CCC(=O)NC2C(O)OC(CO)C(O)C2O)nn1 (centres unmarked) [Glucose-PEG-photodoxazolidine]
k in ACN: H2O, relative rate constant for photocleavage [2]: 0.036 min⁻¹
k in PBS, relative rate constant for photocleavage [2]: 0.011 min⁻¹
k in ACN: H2O, fold over photodoxazolidine [2]: (5.2)
k in PBS, fold over photodoxazolidine [2]: (4.2)
photochemical reaction, fold faster than photodoxazolidine [2]: 4-5 fold
IC50 ([1]; Homo sapiens, MDA-MB-231, light +, 24 h incubation, 15 min UV, read-out: IC50): 750 nM
IC50 ([1]; Homo sapiens, MDA-MB-231, light −, 24 h incubation, read-out: IC50): 2400 nM
IC50 ([3]; 10 min, MDA-MB-231, +UV 10 min, near UV 350 nm): 27 ± 2 nM
IC50 ([3]; MDA-MB-231, prodrug alone, no UV): > 10000 nM

From patent publication US10912767B2, “Anthracycline prodrugs and methods of making and using the same” (THE REGENTS OF THE UNIVERSITY OF COLORADO, priority 2015, dated 2021)
